In patent US20170050957A1, “4-AMINO-6-(HETEROCYCLIC)PICOLINATES AND 6-AMINO-2-(HETEROCYCLIC)PYRIMIDINE-4-CARBOXYLATES AND THEIR USE AS HERBICIDES” (Dow AgroSciences LLC, priority 2013, published 2017):
Where two headings read alike, the source gives them in different places.

Tests used:
[1] = tested on: Key Grass and Sedge Weeds as well as Grass Crops; assay: Post-emergent Test II herbicidal activity (Table 16); format: in vivo; conditions: post-emergence, 336 h, 14 days after application; for pest or weed control at 35 g/ha: 35 g ai/ha; for pest or weed control at 70 g/ha: 70 g ai/ha; for pest or weed control at 140 g/ha: 140 g ai/ha
In short: (§1)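 Visual injury rating (0 = none, 100% = complete kill) made 14 d after treatment, relative to untreated plants. Compounds in an acetone/DMSO/aqueous crop-oil/surfactant spray, at top rate and serial 1/2×-1/16× rates, were applied at 187 L/ha overhead to first-second true leaf plants raised 7-21 d in greenhouse.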

[2] = tested on: Key Broadleaf Weed and Crop Species; assay: Post-emergent Test II herbicidal activity (Table 15); format: in vivo; conditions: post-emergence, 336 h, 14 d; for pest or weed control at 35 g/ha: 35 g ai/ha; for pest or weed control at 70 g/ha: 70 g ai/ha; for pest or weed control at 140 g/ha: 140 g ai/ha
In short: as §1

[3] = Cyperus esculentus, yellow nutsedge (Cyperus esculentus), read-out: Visual Growth Reduction (%) 14 Days After Application CYPES
[4] = Echinochloa crus-galli, barnyardgrass (Echinochloa crus-galli), read-out: Visual Growth Reduction (%) 14 Days After Application ECHCG
[5] = Oryza sativa, rice (Oryza sativa), read-out: Visual Growth Reduction (%) 14 Days After Application ORYSA
[6] = Setaria faberi, giant foxtail (Setaria faberi), read-out: Visual Growth Reduction (%) 14 Days After Application SETFA
[7] = Triticum aestivum, wheat, spring (Triticum aestivum), read-out: Visual Growth Reduction (%) 14 Days After Application TRZAS
[8] = Zea mays, maize, corn (Zea mays), read-out: Visual Growth Reduction (%) 14 Days After Application ZEAMX
[9] = Abutilon theophrasti, velvetleaf (Abutilon theophrasti), read-out: Visual Growth Reduction (%) 14 Days After Application, ABUTH
[10] = Amaranthus retroflexus, redroot pigweed (Amaranthus retroflexus), read-out: Visual Growth Reduction (%) 14 Days After Application, AMARE
[11] = Brassica napus, oilseed rape, canola (Brassica napus), read-out: Visual Growth Reduction (%) 14 Days After Application, BRSNN
[12] = Chenopodium album, lambsquarters (Chenopodium album), read-out: Visual Growth Reduction (%) 14 Days After Application, CHEAL
[13] = Euphorbia heterophylla, wild poinsettia (Euphorbia heterophylla), read-out: Visual Growth Reduction (%) 14 Days After Application, EPHHL
[14] = Helianthus annuus, sunflower (Helianthus annuus), read-out: Visual Growth Reduction (%) 14 Days After Application, HELAN

melting point	SMILES	pest or weed control at 35 g/ha [1, 3]	pest or weed control at 70 g/ha [1, 3]	pest or weed control at 140 g/ha [1, 3]	pest or weed control at 35 g/ha [1, 4]	pest or weed control at 70 g/ha [1, 4]	pest or weed control at 140 g/ha [1, 4]	pest or weed control at 35 g/ha [1, 5]	pest or weed control at 70 g/ha [1, 5]	pest or weed control at 140 g/ha [1, 5]	pest or weed control at 35 g/ha [1, 6]	pest or weed control at 70 g/ha [1, 6]	pest or weed control at 140 g/ha [1, 6]	pest or weed control at 35 g/ha [1, 7]	pest or weed control at 70 g/ha [1, 7]	pest or weed control at 140 g/ha [1, 7]	pest or weed control at 35 g/ha [1, 8]	pest or weed control at 70 g/ha [1, 8]	pest or weed control at 140 g/ha [1, 8]	pest or weed control at 35 g/ha [2, 9]	also measured
143 to 146 °C	COC(=O)c1nc(-c2ccc3ccsc3c2)c(C)c(N)c1Cl [Compound 3.18]	0 to 29%	0 to 29%	0 to 29%	0 to 29%	0 to 29%	0 to 29%	0 to 29%	0 to 29%	0 to 29%	0 to 29%	0 to 29%	0 to 29%	0 to 29%	0 to 29%	0 to 29%	0 to 29%	0 to 29%	0 to 29%	60 to 74%	pest or weed control at 70 g/ha [2, 9]: 75 to 84%; pest or weed control at 140 g/ha [2, 9]: 75 to 84%; pest or weed control at 35 g/ha [2, 10]: 60 to 74%; pest or weed control at 70 g/ha [2, 10]: 75 to 84%; pest or weed control at 140 g/ha [2, 10]: 95 to 100%; pest or weed control at 35 g/ha [2, 11]: 0 to 29%; pest or weed control at 70 g/ha [2, 11]: 0 to 29%; pest or weed control at 140 g/ha [2, 11]: 0 to 29%; pest or weed control at 35 g/ha [2, 12]: 30 to 44%; pest or weed control at 70 g/ha [2, 12]: 60 to 74%; pest or weed control at 140 g/ha [2, 12]: 60 to 74%; pest or weed control at 35 g/ha [2, 13]: 45 to 59%; pest or weed control at 70 g/ha [2, 13]: 0 to 29%; pest or weed control at 140 g/ha [2, 13]: 30 to 44%; pest or weed control at 35 g/ha [2, 14]: 95 to 100%; pest or weed control at 70 g/ha [2, 14]: 95 to 100%; pest or weed control at 140 g/ha [2, 14]: 95 to 100%
157 to 162 °C	Cc1c(-c2ccc3ccsc3c2)nc(C(=O)O)c(Cl)c1N [Compound 3.19]	0 to 29%	0 to 29%	0 to 29%	0 to 29%	0 to 29%	0 to 29%	0 to 29%	0 to 29%	0 to 29%	0 to 29%	0 to 29%	0 to 29%	0 to 29%	0 to 29%	0 to 29%	0 to 29%	0 to 29%	0 to 29%	0 to 29%	pest or weed control at 70 g/ha [2, 9]: 0 to 29%; pest or weed control at 140 g/ha [2, 9]: 60 to 74%; pest or weed control at 35 g/ha [2, 10]: 60 to 74%; pest or weed control at 70 g/ha [2, 10]: 95 to 100%; pest or weed control at 140 g/ha [2, 10]: 75 to 84%; pest or weed control at 35 g/ha [2, 11]: 0 to 29%; pest or weed control at 70 g/ha [2, 11]: 0 to 29%; pest or weed control at 140 g/ha [2, 11]: 0 to 29%; pest or weed control at 35 g/ha [2, 12]: 60 to 74%; pest or weed control at 70 g/ha [2, 12]: 60 to 74%; pest or weed control at 140 g/ha [2, 12]: 75 to 84%; pest or weed control at 35 g/ha [2, 13]: 0 to 29%; pest or weed control at 70 g/ha [2, 13]: 0 to 29%; pest or weed control at 140 g/ha [2, 13]: 0 to 29%; pest or weed control at 35 g/ha [2, 14]: 85 to 94%; pest or weed control at 70 g/ha [2, 14]: 85 to 94%; pest or weed control at 140 g/ha [2, 14]: 85 to 94%
143 to 145 °C	COC(=O)c1nc(-c2ccc3ccsc3c2)nc(N)c1OC [Compound 3.20]	30 to 44%	30 to 44%	85 to 94%	0 to 29%	45 to 59%	60 to 74%	0 to 29%	0 to 29%	0 to 29%	0 to 29%	0 to 29%	60 to 74%	0 to 29%	0 to 29%	30 to 44%	0 to 29%	75 to 84%	85 to 94%	0 to 29%	pest or weed control at 70 g/ha [2, 9]: 0 to 29%; pest or weed control at 140 g/ha [2, 9]: 0 to 29%; pest or weed control at 35 g/ha [2, 10]: 0 to 29%; pest or weed control at 70 g/ha [2, 10]: 60 to 74%; pest or weed control at 140 g/ha [2, 10]: 60 to 74%; pest or weed control at 35 g/ha [2, 11]: 30 to 44%; pest or weed control at 70 g/ha [2, 11]: 60 to 74%; pest or weed control at 140 g/ha [2, 11]: 60 to 74%; pest or weed control at 35 g/ha [2, 12]: 85 to 94%; pest or weed control at 70 g/ha [2, 12]: 95 to 100%; pest or weed control at 140 g/ha [2, 12]: 95 to 100%; pest or weed control at 35 g/ha [2, 13]: 75 to 84%; pest or weed control at 70 g/ha [2, 13]: 95 to 100%; pest or weed control at 140 g/ha [2, 13]: 95 to 100%; pest or weed control at 35 g/ha [2, 14]: 75 to 84%; pest or weed control at 70 g/ha [2, 14]: 85 to 94%; pest or weed control at 140 g/ha [2, 14]: 85 to 94%
